Experimental data reported in ChEMBL document CHEMBL4732172, “Discovery, semisynthesis and neurite outgrowth-promoting activity of novel merrillianone/cycloparviforalone based esters as neurotrophic agents” (Bioorg Med Chem Lett, 2021).
Activity calls are given as the source filed them. The rule behind the calls is not given here.

What was measured:
PC-12 [1] = assay: Neurotrophic activity in rat PC-12 cells assessed as neurite outgrowth promoting activity in NGF-induced cells by measuring differentiation rate at 10 […] (reference value: 4.24 +/- 0.03 %); format: functional; design: concentration or dose not given beside the values
[2] = Hydrolytic stability in phosphate buffer with pH 3.5 assessed as retention time measured after 2 hrs by HPLC analysis; format: physicochemical; settings: pH 3.5, 2 h
[3] = Hydrolytic stability in phosphate buffer with pH 3.5 assessed as retention time measured after 4 hrs by HPLC analysis; format: physicochemical; settings: pH 3.5, 4 h
[4] = Hydrolytic stability in phosphate buffer with pH 3.5 assessed as retention time measured after 6 hrs by HPLC analysis; format: physicochemical; settings: pH 3.5, 6 h
PC-12 [5] = assay: Induction of neurite outgrowth in NGF-induced rat PC-12 cells assessed as increase in average neurite length at 10 uM in presence of by methylene blue staining based light microscopy; format: functional, cell-based
PC-12 [6] = assay: Neurotrophic activity in rat PC-12 cells assessed as neurite outgrowth promoting activity in NGF-induced cells by measuring differentiation rate at 10 […] relative to merrillianone; format: functional
PC-12 [7] = assay: Neurotrophic activity in rat PC-12 cells assessed as neurite outgrowth promoting activity in NGF-induced cells by measuring differentiation rate at 10 […] relative to cycloparviforalone; format: functional

| SMILES | Activity (PC-12 [1]) | further results |
| --- | --- | --- |
| C[C@@H]1CC[C@@]2(O)[C@]13C[C@@]1(OC(=O)Cc4ccc(F)cc4)OC(OC[C@@]2(C)[C@@]1(C)O)[C@@H]3O | 5.74% |  |
| C[C@@H]1CC[C@@]2(O)[C@]13C[C@@]1(OC(=O)CCc4ccc(Cl)cc4)OC(OC[C@@]2(C)[C@@]1(C)O)[C@@H]3O | 5.87% |  |
| C[C@@H]1CC[C@@]2(O)[C@]13C[C@@]1(OC(=O)Cc4cccc(Cl)c4)OC(OC[C@@]2(C)[C@@]1(C)O)[C@@H]3O | 7.13% |  |
| C[C@@H]1CC=C2[C@]13C[C@@]1(O)OC(OC[C@@]2(C)[C@@]1(C)O)[C@@H]3OC(=O)CCc1cccc(Cl)c1 | 5.6% |  |
| C[C@@H]1CC[C@@]2(O)[C@]13C[C@@]1(OC(=O)Cc4ccc5ccccc5c4)OC(OC[C@@]2(C)[C@@]1(C)O)[C@@H]3O | 4.76% | Retention_time [2]: 15.77 min; Retention_time [3]: 15.97 min; Retention_time [4]: 16.154 min |
| C[C@@H]1CC[C@@]2(O)[C@]13C[C@@]1(OC(=O)CCc4ccc(Br)cc4)OC(OC[C@@]2(C)[C@@]1(C)O)[C@@H]3O | 6.15% |  |
| C[C@@H]1CC[C@@]2(O)[C@]13C[C@@]1(OC(=O)CCc4ccc(F)cc4)OC(OC[C@@]2(C)[C@@]1(C)O)[C@@H]3O | 10.41% | Activity (PC-12 [5]): Active; fold change (FC) (PC-12 [6]): 2; fold change (FC) (PC-12 [7]): 2 |
| C[C@@H]1CC[C@@]2(O)[C@]13C[C@@]1(OC(=O)Cc4ccc(Cl)cc4)OC(OC[C@@]2(C)[C@@]1(C)O)[C@@H]3O | 4.9% |  |
| C[C@@H]1CC[C@@]2(O)[C@]13C[C@@]1(OC(=O)Cc4cccc(F)c4)OC(OC[C@@]2(C)[C@@]1(C)O)[C@@H]3O | 6.52% |  |
| C[C@@H]1CC=C2[C@]13C[C@@]1(O)OC(OC[C@@]2(C)[C@@]1(C)O)[C@@H]3O | 5.31% |  |
| C[C@@H]1CC=C2[C@]13C[C@@]1(O)OC(OC[C@@]2(C)[C@@]1(C)O)[C@@H]3OC(=O)CCc1ccc(Cl)cc1 | 6.05% |  |
| C[C@@H]1CC[C@@]2(O)[C@]13C[C@@]1(OC(=O)CCc4cccc(Br)c4)OC(OC[C@@]2(C)[C@@]1(C)O)[C@@H]3O | 5.26% |  |
| C[C@@H]1CC=C2[C@]13C[C@@]1(O)OC(OC[C@@]2(C)[C@@]1(C)O)[C@@H]3OC(=O)CCC(=O)c1ccccc1 | 7.21% |  |
| C[C@@H]1CC[C@@]2(O)[C@]13C[C@@]1(OC(=O)Cc4cccc(Br)c4)OC(OC[C@@]2(C)[C@@]1(C)O)[C@@H]3O | 7.35% |  |
| C[C@@H]1CC[C@@]2(O)[C@]13C[C@@]1(OC(=O)CCc4cccc(Cl)c4)OC(OC[C@@]2(C)[C@@]1(C)O)[C@@H]3O | 4.57% |  |
| C/C=C/C=C/C(=O)O[C@]12C[C@]34[C@H](C)CC[C@]3(O)[C@@](C)(COC(O1)[C@@H]4O)[C@@]2(C)O | 11.74% | Activity (PC-12 [5]): Active; fold change (FC) (PC-12 [6]): 2; fold change (FC) (PC-12 [7]): 2 |
| C[C@@H]1CC[C@@]2(O)[C@]13C[C@@]1(OC(=O)Cc4ccc(Br)cc4)OC(OC[C@@]2(C)[C@@]1(C)O)[C@@H]3O | 6.12% |  |
| C[C@@H]1CC=C2[C@]13C[C@@]1(O)OC(OC[C@@]2(C)[C@@]1(C)O)[C@@H]3OC(=O)CCc1ccccc1 | 5.81% |  |
| C/C=C/C=C/C(=O)O[C@H]1C2OC[C@]3(C)C4=CC[C@@H](C)[C@@]41C[C@@](O)(O2)[C@]3(C)O | 11.11% | Activity (PC-12 [5]): Active; fold change (FC) (PC-12 [6]): 2; fold change (FC) (PC-12 [7]): 2 |
| C[C@@H]1CC=C2[C@]13C[C@@]1(O)OC(OC[C@@]2(C)[C@@]1(C)O)[C@@H]3OC(=O)CCc1cccc(Br)c1 | 5.26% |  |
| C[C@@H]1CC[C@@]2(O)[C@]13C[C@@]1(OC(=O)/C=C/c4ccccc4)OC(OC[C@@]2(C)[C@@]1(C)O)[C@@H]3O | 5.03% |  |
| C[C@@H]1CC=C2[C@]13C[C@@]1(O)OC(OC[C@@]2(C)[C@@]1(C)O)[C@@H]3OC(=O)CCc1ccc(Br)cc1 | 6.03% |  |
| C[C@@H]1CC[C@@]2(O)[C@]13C[C@@]1(OC(=O)CCC(=O)c4ccccc4)OC(OC[C@@]2(C)[C@@]1(C)O)[C@@H]3O | 5.69% |  |
| C[C@@H]1CC[C@@]2(O)[C@]13C[C@@]1(O)OC(OC[C@@]2(C)[C@@]1(C)O)[C@@H]3O | 5.75% |  |
| C[C@@H]1CC=C2[C@]13C[C@@]1(O)OC(OC[C@@]2(C)[C@@]1(C)O)[C@@H]3OC(=O)CCc1ccc(F)cc1 | 5.43% |  |
| C[C@@H]1CC[C@@]2(O)[C@]13C[C@@]1(OC(=O)CCc4cccc(F)c4)OC(OC[C@@]2(C)[C@@]1(C)O)[C@@H]3O | 6.35% |  |
| C[C@@H]1CC=C2[C@]13C[C@@]1(O)OC(OC[C@@]2(C)[C@@]1(C)O)[C@@H]3OC(=O)CCc1cccc(F)c1 | 4.97% |  |
